Assay results taken from patent US9802921B2, “Fluoromethyl-substituted pyrrole carboxamides iv” (Grünenthal GmbH, priority 2013, dated 2017).

The compounds below were run against T1, Human CaV2.2 channels (Homo sapiens, UniProt Q00975) (assay: Fluorescent assay for CaV2.2 channels using potassium depolarization to induce channel opening (FLIPR, Fluo 4)). Conditions: read-out: Activity Category: %-Inhib (CaV2.2) @3 μM @30 mM KCl; 3 μM test compound; 30 mM KCl as printed; HEK293 cells stably expressing human CaV2.2.
T1 construct: expressed in transfected cells
T1 sequence (Q00975 whole entry): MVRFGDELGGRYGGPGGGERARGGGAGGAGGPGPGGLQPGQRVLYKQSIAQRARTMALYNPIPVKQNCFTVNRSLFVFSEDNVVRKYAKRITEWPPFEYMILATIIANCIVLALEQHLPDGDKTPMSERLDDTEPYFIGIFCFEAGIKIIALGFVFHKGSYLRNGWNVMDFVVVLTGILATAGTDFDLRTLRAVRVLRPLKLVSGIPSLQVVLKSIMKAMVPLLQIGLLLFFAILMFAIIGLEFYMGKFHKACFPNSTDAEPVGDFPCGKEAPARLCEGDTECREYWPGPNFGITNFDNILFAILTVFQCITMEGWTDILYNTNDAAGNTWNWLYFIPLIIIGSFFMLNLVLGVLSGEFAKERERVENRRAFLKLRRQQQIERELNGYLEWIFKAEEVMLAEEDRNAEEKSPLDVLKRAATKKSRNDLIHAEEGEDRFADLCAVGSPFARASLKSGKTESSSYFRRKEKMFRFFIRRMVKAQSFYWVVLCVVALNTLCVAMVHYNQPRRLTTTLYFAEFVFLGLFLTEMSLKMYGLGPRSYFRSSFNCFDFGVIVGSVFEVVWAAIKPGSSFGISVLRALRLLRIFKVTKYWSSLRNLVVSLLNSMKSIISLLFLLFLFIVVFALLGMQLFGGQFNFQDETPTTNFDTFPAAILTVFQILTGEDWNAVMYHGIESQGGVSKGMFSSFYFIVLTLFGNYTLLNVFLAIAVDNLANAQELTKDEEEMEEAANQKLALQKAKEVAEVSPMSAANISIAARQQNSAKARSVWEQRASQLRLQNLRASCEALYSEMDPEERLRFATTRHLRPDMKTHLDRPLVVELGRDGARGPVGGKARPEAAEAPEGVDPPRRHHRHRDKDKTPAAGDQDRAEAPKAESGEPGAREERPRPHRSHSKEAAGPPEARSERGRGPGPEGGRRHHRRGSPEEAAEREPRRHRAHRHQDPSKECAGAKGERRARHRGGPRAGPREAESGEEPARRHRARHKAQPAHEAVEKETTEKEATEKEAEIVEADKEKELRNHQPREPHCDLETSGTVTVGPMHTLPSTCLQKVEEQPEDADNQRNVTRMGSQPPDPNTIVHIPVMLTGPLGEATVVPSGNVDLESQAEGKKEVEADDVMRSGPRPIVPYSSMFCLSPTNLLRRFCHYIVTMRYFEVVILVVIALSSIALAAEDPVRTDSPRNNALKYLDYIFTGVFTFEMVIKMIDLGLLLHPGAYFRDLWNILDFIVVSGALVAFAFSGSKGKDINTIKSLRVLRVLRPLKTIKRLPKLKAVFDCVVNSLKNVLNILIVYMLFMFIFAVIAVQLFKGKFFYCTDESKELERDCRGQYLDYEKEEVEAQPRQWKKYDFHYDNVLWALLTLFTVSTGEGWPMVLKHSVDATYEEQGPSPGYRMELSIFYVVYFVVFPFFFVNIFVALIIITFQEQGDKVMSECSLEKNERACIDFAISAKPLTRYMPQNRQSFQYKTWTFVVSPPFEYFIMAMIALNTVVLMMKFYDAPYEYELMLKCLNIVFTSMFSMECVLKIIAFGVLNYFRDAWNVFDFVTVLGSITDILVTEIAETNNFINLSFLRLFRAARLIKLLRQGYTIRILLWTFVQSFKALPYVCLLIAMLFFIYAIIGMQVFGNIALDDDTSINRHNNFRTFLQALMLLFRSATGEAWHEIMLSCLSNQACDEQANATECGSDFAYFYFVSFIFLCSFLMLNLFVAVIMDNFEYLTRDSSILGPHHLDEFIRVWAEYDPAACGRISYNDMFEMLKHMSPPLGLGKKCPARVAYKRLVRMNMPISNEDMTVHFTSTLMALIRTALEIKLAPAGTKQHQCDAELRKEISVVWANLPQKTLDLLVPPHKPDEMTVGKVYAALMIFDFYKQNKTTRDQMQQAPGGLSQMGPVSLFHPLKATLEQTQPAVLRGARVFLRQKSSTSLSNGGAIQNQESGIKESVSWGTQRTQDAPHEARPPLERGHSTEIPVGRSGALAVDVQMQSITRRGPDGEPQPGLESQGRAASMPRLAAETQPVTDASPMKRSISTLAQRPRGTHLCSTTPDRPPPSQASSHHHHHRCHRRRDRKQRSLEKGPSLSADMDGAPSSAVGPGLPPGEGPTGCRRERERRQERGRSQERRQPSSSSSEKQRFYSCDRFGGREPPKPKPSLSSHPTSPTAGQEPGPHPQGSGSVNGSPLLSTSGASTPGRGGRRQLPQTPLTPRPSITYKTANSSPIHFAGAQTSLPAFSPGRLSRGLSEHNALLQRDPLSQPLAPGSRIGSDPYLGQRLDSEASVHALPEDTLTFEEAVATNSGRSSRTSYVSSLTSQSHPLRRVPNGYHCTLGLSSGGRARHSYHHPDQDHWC
T1 sequence (P54289 25-1103, further chain): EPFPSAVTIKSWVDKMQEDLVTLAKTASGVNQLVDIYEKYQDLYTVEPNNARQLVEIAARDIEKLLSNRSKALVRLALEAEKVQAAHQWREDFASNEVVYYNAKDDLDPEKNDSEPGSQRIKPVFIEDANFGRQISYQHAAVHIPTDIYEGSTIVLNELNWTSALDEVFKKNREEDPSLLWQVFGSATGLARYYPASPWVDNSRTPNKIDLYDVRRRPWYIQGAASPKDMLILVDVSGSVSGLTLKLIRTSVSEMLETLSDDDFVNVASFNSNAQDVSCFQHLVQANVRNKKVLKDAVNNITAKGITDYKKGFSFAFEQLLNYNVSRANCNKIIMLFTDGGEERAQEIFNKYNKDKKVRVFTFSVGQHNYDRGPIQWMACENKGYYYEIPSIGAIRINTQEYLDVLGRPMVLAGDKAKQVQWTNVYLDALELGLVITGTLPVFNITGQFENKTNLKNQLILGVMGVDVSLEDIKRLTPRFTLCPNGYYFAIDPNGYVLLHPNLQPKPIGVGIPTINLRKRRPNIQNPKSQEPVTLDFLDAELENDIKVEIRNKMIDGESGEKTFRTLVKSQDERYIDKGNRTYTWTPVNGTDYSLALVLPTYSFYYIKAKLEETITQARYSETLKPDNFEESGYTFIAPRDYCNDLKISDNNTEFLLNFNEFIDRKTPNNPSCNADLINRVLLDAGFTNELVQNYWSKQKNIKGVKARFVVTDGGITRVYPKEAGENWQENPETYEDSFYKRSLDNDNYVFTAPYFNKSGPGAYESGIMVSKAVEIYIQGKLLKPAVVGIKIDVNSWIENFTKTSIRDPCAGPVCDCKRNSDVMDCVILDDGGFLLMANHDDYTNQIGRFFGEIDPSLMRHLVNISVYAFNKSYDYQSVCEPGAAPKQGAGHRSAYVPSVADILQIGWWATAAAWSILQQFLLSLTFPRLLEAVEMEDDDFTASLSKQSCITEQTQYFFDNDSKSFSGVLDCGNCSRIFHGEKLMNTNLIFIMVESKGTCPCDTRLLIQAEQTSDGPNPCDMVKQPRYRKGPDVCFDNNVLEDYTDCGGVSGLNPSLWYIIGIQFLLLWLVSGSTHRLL
T1 sequence (P54284 whole entry, further chain): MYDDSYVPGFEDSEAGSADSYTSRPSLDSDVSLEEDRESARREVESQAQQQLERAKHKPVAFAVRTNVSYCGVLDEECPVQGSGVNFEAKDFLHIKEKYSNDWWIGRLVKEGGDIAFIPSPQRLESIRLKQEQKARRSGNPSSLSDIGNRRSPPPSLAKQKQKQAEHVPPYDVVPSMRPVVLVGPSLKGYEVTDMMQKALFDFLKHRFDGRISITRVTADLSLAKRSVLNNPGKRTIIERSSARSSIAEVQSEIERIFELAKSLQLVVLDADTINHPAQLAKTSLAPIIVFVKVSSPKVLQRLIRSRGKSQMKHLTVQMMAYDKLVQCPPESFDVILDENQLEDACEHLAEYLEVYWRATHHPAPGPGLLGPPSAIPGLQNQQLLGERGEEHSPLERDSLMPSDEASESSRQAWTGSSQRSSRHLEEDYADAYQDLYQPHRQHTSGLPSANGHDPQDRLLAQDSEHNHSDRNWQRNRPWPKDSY
Assay type: cell-based
Excerpt: In the process, the Ca^2+ influx is quantified in the FLIPR assay with the aid of a Ca^2+-sensitive dye (type Fluo-4, Molecular Probes Europe BV, Leiden, the Netherlands) in a fluorescent imaging plate reader (FLIPR 3, Molecular Devices, Sunnyvale, USA), as described hereinafter.
Human CaV2.2 channels were stably expressed in HEK293 cells together with alpha2-delta and beta subunits of voltage gated calcium channels. In addition, an inwardly rectifying potassium channel (Kir2.3) was stably expressed in these cells to augment control of the cell membrane potential by the concentration of extracellular potassium ions. Raise of the extracellular potassium concentration leads to depolarization of the membrane potential and thus regulates the voltage dependent state of CaV2.2 channels. For preparation, cells were seeded in black poly-D-lysine coated 96-well plates (Becton Dickinson, Biocoat 4640) in 100 μL medium [500 mL DMEM/F-12 plus Glutamax (Invitrogen 31331-093) plus 5.5 mL MEM NEAA 100× (Invitrogen 11140-035) plus 50 mL FBS decomplemented (Invitrogen 10270-106) plus 200 μg/mL Geneticin (Invitrogen 10131-027) plus 50 μg/mL Hygromycin B (Invitrogen 10687-010) plus 2 μg/mL Blasticidin (anti-bl5b Invivo-Gen) plus 0.2 μg/mL Puromycin (A 11138-03)] at a cell density of 30.000 cells per well. Plates were incubated at 37° C. (5% CO2) for 20 to 23 h. On the day of experiment medium was discarded and cells were loaded with Fluo 4 by addition of 100 μL of basic assay buffer (10 mM HEPES, 1 mM KCl, 149 mM NaCl, 0.8 mM CaCl2, 1.7 mM MgCl2, 10 mM Glucose, 0.1% BSA. pH 7.4) containing 2 μM Fluo 4 (Molecular Probes; F-14201), 0.01% pluronic acid (Molecular Probes; P-6866) and 2.5 mM probenecid (Molecular Probes; P36400). Cells were incubated in the dark at 25° C. for 60 min. Then dye containing buffer was discarded and 100 μL basic (1 mM KCl) or alternative (30 mM KCl) assay buffer was added. The alternative assay buffer contained altered concentrations of KCl (30 mM) and NaCl (120 mM) and was used in order to promote the inactivated channel state. After that 25 μL of basic or alternative assay buffer with or without test compound were added and cells were incubated again in the dark at 25° C. for 15 min. Fluorescence intensity was measured on a FLIPR 3 instrument (Molecular Devices Corp., Sunnyvale, Calif.) with excitation at 480 nm and emission at 535 nm. After continuously reading fluorescence for 30 sec, 50 μL of basic assay buffer containing 210 mM KCl (NaCl omitted) were added for depolarization. Peak fluorescent signal intensity was determined and the amplitude of the peak signal, normalized to base line, was used to measure channel inhibition by test compounds.

For `CN(CC(C)(C)C)C(=O)c1c(-c2ccc(Cl)cc2)cc(C(F)(F)F)n1Cc1ccc(F)cn1` [Example 029, 3-(4-Chlorophenyl)-N-(2,2-dimethyl-propyl)-1-[(5-fluoro-pyridin-2-yl)-methyl]-N-methyl-5-(trifluoromethyl)-1H-pyrrole-2-carboxylic acid amide], which inhibition at 3 µM is on record?
Its inhibition at 3 µM is over 95%.

For `Cc1nc(Cn2c(C(F)(F)F)cc(-c3ccc(Cl)cc3)c2C(=O)N(C)CC(C)(C)C)no1` [Example 012, 3-(4-Chlorophenyl)-N-(2,2-dimethyl-propyl)-N-methyl-1-[(5-methyl-[1,2,4]oxadiazol-3-yl)-methyl]-5-(trifluoromethyl)-1H-pyrrole-2-carboxylic acid amide], which inhibition at 3 µM is on record?
The inhibition at 3 µM was over 95%.

`Cc1c(-c2ccc(Cl)cc2)c(C(=O)N2CCS(=O)(=O)CC2)n(Cc2cn(C)cn2)c1C(F)(F)F` [Example 022, [3-(4-Chlorophenyl)-4-methyl-1-[(1-methyl-1H-imidazol-4-yl)-methyl]-5-(trifluoromethyl)-1H-pyrrol-2-yl]-(1,1-dioxo-[1,4]thiazinan-4-yl)-methanone] was tested. Which inhibition at 3 µM did it give?
Its inhibition at 3 µM is 40 to 75%.

Which inhibition at 3 µM does the source give for `Cc1c(-c2ccc(Cl)cc2F)c(C(=O)N(C)C2CC2)n(Cc2ncccn2)c1C(F)(F)F` [Example 063, 3-(4-Chloro-2-fluoro-phenyl)-N-cyclopropyl-N,4-dimethyl-1-(pyrimidin-2-yl-methyl)-5-(trifluoromethyl)-1H-pyrrole-2-carboxylic acid amide] here?
Its inhibition at 3 µM is over 95%.

For `Cc1cnc(Cn2c(C(F)(F)F)cc(-c3ccc(Cl)cc3)c2C(=O)N(C)CC(C)(C)C)cn1` [Example 030, 3-(4-Chlorophenyl)-N-(2,2-dimethyl-propyl)-N-methyl-1-[(5-methyl-pyrazin-2-yl)-methyl]-5-(trifluoromethyl)-1H-pyrrole-2-carboxylic acid amide], which inhibition at 3 µM is on record?
The inhibition at 3 µM was over 95%.

For `Cc1ncc(Cn2c(C(F)(F)F)cc(-c3ccc(Cl)cc3)c2C(=O)N(C)CC(C)(C)C)cn1` [Example 034, 3-(4-Chlorophenyl)-N-(2,2-dimethyl-propyl)-N-methyl-1-[(2-methyl-pyrimidin-5-yl)-methyl]-5-(trifluoromethyl)-1H-pyrrole-2-carboxylic acid amide], which inhibition at 3 µM is on record?
The inhibition at 3 µM was 75 to 95%.

How did the inhibition at 3 µM turn out when `CN(CC(C)(C)C)C(=O)c1c(-c2ccc(Cl)cc2)cc(C(F)(F)F)n1Cc1nc(C(F)(F)F)no1` [Example 010, 3-(4-Chlorophenyl)-N-(2,2-dimethyl-propyl)-N-methyl-5-(trifluoromethyl)-1-[[3-(trifluoromethyl)-[1,2,4]oxadiazol-5-yl]-methyl]-1H-pyrrole-2-carboxylic acid amide] was run?
Its inhibition at 3 µM is 75 to 95%.

Which inhibition at 3 µM does the source give for `Cc1c(-c2ccc(Cl)cc2)c(C(=O)N2CC(C)(O)C2)n(-c2cnccn2)c1C(F)(F)F` [Example 051, [3-(4-Chlorophenyl)-4-methyl-1-pyrazin-2-yl-5-(trifluoromethyl)-1H-pyrrol-2-yl]-(3-hydroxy-3-methyl-azetidin-1-yl)-methanone] here?
Its inhibition at 3 µM is 40 to 75%.

How did the inhibition at 3 µM turn out when `Cc1c(-c2ccc(Cl)cc2)c(C(=O)N(C)CCS(C)(=O)=O)n(Cc2ncccn2)c1C(F)(F)F` [Example 039, 3-(4-Chlorophenyl)-N,4-dimethyl-N-(2-methylsulfonyl-ethyl)-1-(pyrimidin-2-yl-methyl)-5-(trifluoromethyl)-1H-pyrrole-2-carboxylic acid amide] was run?
The inhibition at 3 µM was 75 to 95%.

`CN(CC(C)(C)C)C(=O)c1c(-c2ccc(Cl)cc2)cc(C(F)(F)F)n1Cc1cn(C)nn1` [Example 009, 3-(4-Chlorophenyl)-N-(2,2-dimethyl-propyl)-N-methyl-1-[(1-methyl-1H-[1,2,3]triazol-4-yl)-methyl]-5-(trifluoromethyl)-1H-pyrrole-2-carboxylic acid amide] was tested. Which inhibition at 3 µM did it give?
Its inhibition at 3 µM is 75 to 95%.

`Cc1c(-c2ccc(Cl)cc2)c(C(=O)N(C)CCS(C)(=O)=O)n(Cc2nccn2C)c1C(F)(F)F` [Example 002, 3-(4-Chlorophenyl)-N,4-dimethyl-1-[(1-methyl-1H-imidazole-2-yl)-methyl]-N-(2-methylsulfonyl-ethyl)-5-(trifluoromethyl)-1H-pyrrole-2-carboxylic acid amide] was tested. Which inhibition at 3 µM did it give?
The inhibition at 3 µM was 40 to 75%.

Which inhibition at 3 µM does the source give for `Cc1c(-c2ccc(Cl)cc2)c(C(=O)N(C)C(C)C)n(Cc2nncs2)c1C(F)(F)F` [Example 069, 3-(4-Chlorophenyl)-N-isopropyl-N,4-dimethyl-1-([1,3,4]thiadiazol-2-yl-methyl)-5-(trifluoromethyl)-1H-pyrrole-2-carboxylic acid amide] here?
The inhibition at 3 µM was over 95%.

With `Cc1cc(Cn2c(C(=O)N(C)C(C)C)c(-c3ccc(Cl)cc3)c(C)c2C(F)(F)F)no1` [Example 068, 3-(4-Chlorophenyl)-N-isopropyl-N,4-dimethyl-1-[(5-methyl-isoxazol-3-yl)-methyl]-5-(trifluoromethyl)-1H-pyrrole-2-carboxylic acid amide] as the compound, how does the inhibition at 3 µM read?
Its inhibition at 3 µM is over 95%.

Which inhibition at 3 µM does the source give for `Cc1c(-c2ccc(Cl)cc2F)c(C(=O)N(C)C(C)C)n(Cc2ncccn2)c1C(F)(F)F` [Example 064, 3-(4-Chloro-2-fluoro-phenyl)-N-isopropyl-N,4-dimethyl-1-(pyrimidin-2-yl-methyl)-5-(trifluoromethyl)-1H-pyrrole-2-carboxylic acid amide] here?
Its inhibition at 3 µM is over 95%.

`Cc1cc(CN(C)C(=O)c2c(-c3ccc(Cl)cc3F)c(C)c(C(F)(F)F)n2Cc2ncccn2)no1` [Example 066, 3-(4-Chloro-2-fluoro-phenyl)-N,4-dimethyl-N-[(5-methyl-isoxazol-3-yl)-methyl]-1-(pyrimidin-2-yl-methyl)-5-(trifluoromethyl)-1H-pyrrole-2-carboxylic acid amide] was tested. Which inhibition at 3 µM did it give?
The inhibition at 3 µM was over 95%.

How did the inhibition at 3 µM turn out when `Cc1c(-c2ccc(Cl)cc2)c(C(=O)N2CCOCC2)n(Cc2ccc(F)cn2)c1C(F)(F)F` [Example 044, [3-(4-Chlorophenyl)-1-[(5-fluoro-pyridin-2-yl)-methyl]-4-methyl-5-(trifluoromethyl)-1H-pyrrol-2-yl]-morpholin-4-yl-methanone] was run?
The inhibition at 3 µM was over 95%.

With `Cc1ccnc(Cn2c(C(F)(F)F)cc(-c3ccc(Cl)cc3)c2C(=O)N(C)CC(C)(C)C)n1` [Example 036, 3-(4-Chlorophenyl)-N-(2,2-dimethyl-propyl)-N-methyl-1-[(4-methyl-pyrimidin-2-yl)-methyl]-5-(trifluoromethyl)-1H-pyrrole-2-carboxylic acid amide] as the compound, how does the inhibition at 3 µM read?
Its inhibition at 3 µM is over 95%.

For `Cc1c(-c2ccc(Cl)cc2)c(C(=O)N2CCOCC2)n(Cc2cncc(Cl)c2)c1C(F)(F)F` [Example 028, [3-(4-Chlorophenyl)-1-[(5-chloro-pyridin-3-yl)-methyl]-4-methyl-5-(trifluoromethyl)-1H-pyrrol-2-yl]-morpholin-4-yl-methanone], which inhibition at 3 µM is on record?
Its inhibition at 3 µM is over 95%.

Which inhibition at 3 µM does the source give for `Cc1nnc(Cn2c(C(F)(F)F)cc(-c3ccc(Cl)cc3)c2C(=O)N(C)CC(C)(C)C)o1` [Example 014, 3-(4-Chlorophenyl)-N-(2,2-dimethyl-propyl)-N-methyl-1-[(5-methyl-[1,3,4]oxadiazol-2-yl)-methyl]-5-(trifluoromethyl)-1H-pyrrole-2-carboxylic acid amide] here?
The inhibition at 3 µM was 75 to 95%.

With `Cc1c(-c2ccc(Cl)cc2)c(C(=O)N(C)CCS(C)(=O)=O)n(Cc2cncn2C)c1C(F)(F)F` [Example 003, 3-(4-Chlorophenyl)-N,4-dimethyl-1-[(3-methyl-3H-imidazole-4-yl)-methyl]-N-(2-methylsulfonyl-ethyl)-5-(trifluoromethyl)-1H-pyrrole-2-carboxylic acid amide] as the compound, how does the inhibition at 3 µM read?
Its inhibition at 3 µM is 40 to 75%.

How did the inhibition at 3 µM turn out when `Cc1ncc(Cn2c(C(=O)N3CCOCC3)c(-c3ccc(Cl)cc3)c(C)c2C(F)(F)F)cn1` [Example 043, [3-(4-Chlorophenyl)-4-methyl-1-[(2-methyl-pyrimidin-5-yl)-methyl]-5-(trifluoromethyl)-1H-pyrrol-2-yl]-morpholin-4-yl-methanone] was run?
The inhibition at 3 µM was 75 to 95%.

`Cc1c(-c2ccc(Cl)cc2)c(C(=O)N2CCOCC2)n(Cn2ccccc2=O)c1C(F)(F)F` [Example 056, 1-[[3-(4-Chlorophenyl)-4-methyl-2-(morpholine-4-carbonyl)-5-(trifluoromethyl)-1H-pyrrol-1-yl]-methyl]-1H-pyridin-2-one] was tested. Which inhibition at 3 µM did it give?
The inhibition at 3 µM was 75 to 95%.
